From PubChem BioAssay AID504578 (NMMLSC, 2011)

test system: U937 / B78H1-VCAM-1 aggregate disruption, flow cytometry; test: allosteric VLA-4 inhibitors disrupting cell aggregates, orthogonal assay, flow cytometry, set 1 (AID 504578); details: at 20 µM; stronger effect = higher value

Structure (SMILES) | disaggregation rating
COc1cccc(-c2sc3ccccc3c2-c2ccc(OCCN(C)C)cc2)c1 | 1
c1ccc(-c2sc3ccccc3c2-c2ccc(OCCN3CCCC3)cc2)cc1 | 1
CN(C)CCOc1ccc(-c2c(-c3ccccc3)sc3ccccc23)cc1 | 2
c1ccc2c(-c3ccc(OCCN4CCCC4)cc3)c(-c3ccsc3)sc2c1 | 2
COc1cccc(-c2sc3ccccc3c2-c2ccc(OCCN3CCCC3)cc2)c1 | 1
COc1ccc(-c2sc3ccccc3c2-c2ccc(OCCN(C)C)cc2)cc1 | 2
c1ccc2c(-c3ccc(OCCN4CCCCC4)cc3)c(-c3ccsc3)sc2c1 | 1
